Results as given in patent US7122173B2, “Agent for the treatment of bladder irritative symptoms accompanied by benign prostatic hyperplasia” (Kyowa Hakko Kogyo Co., Ltd., priority 2001, dated 2006).

Tested on: delayed rectifier K^+ channel
Assay: Voltage clamp, delayed rectifier K+ currents in Fast Blue-labeled capsaicin-sensitive bladder afferent neurons
Type: cell-based, rat
Details: Compound 1 1.0 × 10^−6 mol/L
Experimental: Experiments were performed on adult female Sprague Dawley rats. First and second series of the experiments were performed, respectively, in unidentified DRG neurons and a specific population of DRG neurons innervating the urinary bladder. The population of DRG neurons that innervate the urinary bladder were labeled by retrograde axonal transport of the fluorescent dye, Fast Blue (4% w/v) (Polyloy, Gross Umstadt, Germany), injected into the wall of the bladder in halothane-anesthetized animals 7 days before the dissociation. The dye was injected with a 28 gauge needle at three to six sites on the dorsal surface of the organ (5–6 μL per site, total volume of 20–30 μL). Each injection site was washed with saline to minimize contamination of adjacent organs with the dye.
Freshly dissociated neurons from DRG were prepared from halothane-anesthetized animals. […]
Dye-labeled primary afferent neurons that innervate the urinary bladder were identified using an inverted phase-contrast microscope (Nikon, Tokyo, Japan) with fluorescent attachments (UV-1A filter; excitation wavelength, 365 nm). […] All recordings were made with an Axopatch-1D patch-clamp amplifier (Axon Instruments, Foster City, Calif.), and data were acquired and analyzed by PCLAMP software (Axon Instruments).
In voltage-clamp recordings, outward K^+ currents and inward Na^+ currents were measured. […]

C[C@](O)(C(=O)Nc1cccc2c1C(=O)c1sccc1CS2(=O)=O)C(F)(F)F [Compound 1, (S)-(+)-N-(5,5-dioxido-10-oxo-4,10-dihydrothieno[3,2-c][1]benzothiepin-9-yl)-3,3,3-trifluoro-2-hydroxy-2-methylpropanamide]
Delayed rectifier HP: −40 mV, normalized to control: 1.10 ± 0.01
